Consider two molecules from PMC12091851, “Replacing a Cereblon Ligand by a DDB1 and CUL4 Associated Factor 11 (DCAF11) Recruiter Converts a Selective Histone Deacetylase 6 PROTAC into a Pan‐Degrader” (Chemmedchem, 2025).

Data set [1] in a line: Aqueous stability assay in DPBS buffer (HPLC). It is filed as physicochemical. As to conditions: DPBS pH 7.4, 10% DMSO, room temperature, 72 hours. The protocol: and A6. Compounds were diluted in DPBS buffer (pH = 7.4; final DMSO concentration: 10%) and the remaining compound content was analyzed by HPLC. The peak area at 0 h was used for normalization.
Mean ± standard deviation of n = 2 replicates.
Figure S4. Analysis of time dependent degradation by 1j of HDAC1 (A) and HDAC6 (B) by Simple Western™ immunoassay analysis of MM.1S cell lysates. MM.1S cells were treated with 1j (10 µM) or vehicle (DMSO) for the indicated time period. Quantification of protein levels presented as mean ± standard deviation of n = 3 biological replicates. Si gnificance compared to vehicle: * = p≤0.05 , […]
2.5. Aqueous Stability Assay
For stability testing in aqueous solution, a 10-fold concentrated DMSO solution of the respective compounds was diluted in DPBS to generate a 10 µM concentration (final DMSO content of 10%).
Samples of the aqueous solutions were taken after 0, 24, 48, and 72 h at room temperature and the amounts of the parental compound and potential fragments were monitored by HPLC gradient A (see 3.1 General Information). The peak area of the 0 h sample was used for normalization. All compounds were tested in duplicates and GraphPad Prim was used for evaluation and data visualization.
The cell lysis was performed as descripted in 3.2. Simple Western Immunoassay. […]
Afterwards, proteins were transferred with the Trans -Blot Turbo Transfer System (Catalog# 1704150, Bio-Rad) to Immobilon-FL PVDF membranes (Catalog# IPFL00005, Mill ipore Merck, Burlington, MA, USA) at 1.0 A for 30 min and treated with 5% milk-powder solution for 1 h at room temperature under slight agitation. […] The ChemiDoc XRS+ System (Catalog# 1708265 , Bio-Rad) was used for detection and Image Lab Software 6.1 (Bio-Rad) for quantification. […]
In vitro inhibitory activities against HDAC1, 2 , and 6 were measured using a previously published protocol.[3] In vitro inhibitory activities against HDAC4 were measured using a previously published protocol with slight modifications. […]

For data set [2], the target named is HDAC2 (Homo sapiens, UniProt Q92769). Nature of the data set: HDAC enzyme inhibition assay. It is filed as biochemical. Also on record: purchased BPS Bioscience 50052. The protocol: (§1) Bio-Rad) to Immobilon-FL PVDF membranes (Catalog# IPFL00005, Mill ipore Merck, Burlington, MA, USA) at 1.0 A for 30 min and treated with 5% milk-powder solution for 1 h at room temperature […]
(§2) Signaling Technology) antibody solutions in 1:1000 –1:8000 dilutions at 4 °C overnight. […]
(§3) Significance testing was performed with a one -way analysis of variance (ANOVA). Dunnett’s post -hoc test was employed to obtain significance levels of each mean compared to a reference mean value.
(§4) 2.7. HDAC Enzyme Inhibition Assay […]
(§5) [4] For test compounds and controls, serial dilutions of the respective DMSO stock solution in DMSO were prepared, and 1.0 μL /well of this serial dilution were transferred […]
(§6) into OptiPlate-96 black microplates (PerkinElmer, Waltham, […], USA). A volume of 4 µL/well assay […]
(§7) BSA) was added. In the case of HDAC1, 2, and 6, a volume of 35 μL/well of the fluorogenic substrate […]
(§8) The total assay volume of 50 μL (max. 2 % DMSO) was incubated at 37 °C for 90 min. Subsequently, 50 μL /well of trypsin (0.4 mg/mL) in trypsin buffer (50 mM Tris−HCl, pH 8.0, 100 mM NaCl) was added, followed by additional 30 min of incubation at […]
(§9) OPTIMA microplate reader (BMG labtech, Ortenburg, Germany). The half maximal inhibitory concentration (IC50) was determined by plotting dose response curves and nonlinear regression with GraphPad Prism (GraphPad Software).
(§10) 2.8. MTT Cell Viability Assay […]

In data set [3] the target is HDAC1 (Homo sapiens, UniProt Q13547). Kind of data set: HDAC enzyme inhibition assay. It is filed as biochemical. Also on record: purchased BPS Bioscience 50051. The protocol: as §1, §2, §3, §4, §5, §6, §7, §8, §9, §10
Chain of HDAC1 (Q13547 whole entry): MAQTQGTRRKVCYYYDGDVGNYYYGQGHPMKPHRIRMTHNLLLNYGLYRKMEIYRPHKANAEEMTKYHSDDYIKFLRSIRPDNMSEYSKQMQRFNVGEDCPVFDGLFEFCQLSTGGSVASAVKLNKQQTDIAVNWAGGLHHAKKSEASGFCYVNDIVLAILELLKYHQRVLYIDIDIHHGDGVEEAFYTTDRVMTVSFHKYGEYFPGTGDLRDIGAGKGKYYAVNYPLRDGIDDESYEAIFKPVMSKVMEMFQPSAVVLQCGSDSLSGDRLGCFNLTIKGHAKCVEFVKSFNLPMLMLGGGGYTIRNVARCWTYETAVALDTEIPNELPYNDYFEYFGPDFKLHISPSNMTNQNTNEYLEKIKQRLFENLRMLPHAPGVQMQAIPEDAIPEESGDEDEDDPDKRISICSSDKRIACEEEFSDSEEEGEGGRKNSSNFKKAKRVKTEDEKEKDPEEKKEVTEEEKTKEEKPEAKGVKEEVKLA

Chain of HDAC2 (Q92769 whole entry): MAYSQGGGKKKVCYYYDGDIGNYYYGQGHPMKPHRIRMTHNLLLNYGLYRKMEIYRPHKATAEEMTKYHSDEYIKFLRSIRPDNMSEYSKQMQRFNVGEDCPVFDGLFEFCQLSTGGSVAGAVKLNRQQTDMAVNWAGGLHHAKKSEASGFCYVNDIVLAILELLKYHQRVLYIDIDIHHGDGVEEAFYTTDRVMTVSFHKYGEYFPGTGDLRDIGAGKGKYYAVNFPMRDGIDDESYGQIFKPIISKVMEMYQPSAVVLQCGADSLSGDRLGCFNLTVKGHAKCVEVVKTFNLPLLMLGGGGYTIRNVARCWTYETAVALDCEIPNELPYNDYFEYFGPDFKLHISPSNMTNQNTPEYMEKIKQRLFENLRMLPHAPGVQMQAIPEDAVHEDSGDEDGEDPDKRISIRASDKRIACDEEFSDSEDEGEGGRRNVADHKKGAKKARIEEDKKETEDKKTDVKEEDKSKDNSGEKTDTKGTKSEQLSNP

As to `O=C(CCCCCCNC(=O)c1ccc(NC(=O)CCCCCCCCCCCN(C(=O)CCl)C(C(=O)NCc2ccccc2)c2ccc(Cl)c(Cl)c2)cc1)NO` (stereo not drawn) [Compound 1j], the “decomposition / reduction in content in DPBS buffer” value in data set [1] is “more than 90%”. Besides, the IC50 (in general, the concentration at which inhibition is half-maximal) in data set [2] was 2150 ± 110 nM; in data set [3], 1030 ± 40 nM.
In the same order, the values of `O=C(CCCCCCNC(=O)c1ccc(N(C(=O)CCl)C(C(=O)NCc2ccccc2)c2ccc(Cl)c(Cl)c2)cc1)NO` (stereo not drawn) [Compound 2] are 31%, 298 ± 11 nM and 159 ± 44 nM.
